One may read the IC50 as the concentration at which inhibition is half-maximal. A higher IC50 goes with lower potency.

The first assay is filed under the species Ovis aries. Put plainly: Selectivity index, ratio of IC50 for ovine COX1 to IC50 for ovine COX2.
As for `Cc1ccc(N2C(=O)c3ccccc3SC2c2ccc(S(C)(=O)=O)cc2)cc1` (configuration not stated), the Ratio IC50 stood at 252.

A further assay concerns the target T1, Prostaglandin G/H synthase 1 (Ovis aries, UniProt P05979).
T1 sequence (P05979 whole entry): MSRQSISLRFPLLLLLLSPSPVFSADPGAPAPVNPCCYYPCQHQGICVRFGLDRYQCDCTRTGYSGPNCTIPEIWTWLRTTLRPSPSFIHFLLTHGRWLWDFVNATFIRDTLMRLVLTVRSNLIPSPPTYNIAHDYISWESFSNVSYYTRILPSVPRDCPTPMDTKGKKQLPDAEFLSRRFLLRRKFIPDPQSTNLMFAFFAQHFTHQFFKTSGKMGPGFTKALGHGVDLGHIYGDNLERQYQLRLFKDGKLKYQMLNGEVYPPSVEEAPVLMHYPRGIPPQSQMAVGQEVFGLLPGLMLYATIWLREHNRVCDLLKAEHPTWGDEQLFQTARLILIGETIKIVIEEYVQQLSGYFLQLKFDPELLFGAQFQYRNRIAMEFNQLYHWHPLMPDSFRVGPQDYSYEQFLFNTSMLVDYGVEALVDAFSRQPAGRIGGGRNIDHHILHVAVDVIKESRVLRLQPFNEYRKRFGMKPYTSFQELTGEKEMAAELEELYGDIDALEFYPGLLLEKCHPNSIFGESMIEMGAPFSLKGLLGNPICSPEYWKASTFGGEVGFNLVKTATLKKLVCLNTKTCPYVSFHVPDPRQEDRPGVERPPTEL
Description: Inhibition of ovine COX1 by chemiluminescence assay
In turn, `Cc1ccc(N2C(=O)c3ccccc3SC2c2ccc(S(C)(=O)=O)cc2)cc1` (configuration not stated) gave an IC50 of 16.1 µM.
Consider `CS(=O)(=O)c1ccc(C2Sc3ccccc3C(=O)N2Cc2ccccc2)cc1` (configuration not stated), for which the IC50 came to 15.8 µM.
`CS(=O)(=O)c1ccc(C2Sc3ccccc3C(=O)N2CCc2ccccc2)cc1` (configuration not stated) displayed a 50% inhibitory concentration (IC50) of 15.9 µM.
`CS(=O)(=O)c1ccc(C2Sc3ccccc3C(=O)N2c2ccccc2)cc1` (configuration not stated): the IC50 came to 16.5 µM.
Still for that read-out and setting: the result for `COc1ccc(N2C(=O)c3ccccc3SC2c2ccc(S(C)(=O)=O)cc2)cc1` (configuration not stated) reads 14.8 µM; that for `CS(=O)(=O)c1ccc(C2Sc3ccccc3C(=O)N2c2ccc(F)cc2)cc1` (configuration not stated), 13 µM.

The values are drawn from ChEMBL document CHEMBL1152429, “Design and synthesis of new 1,3-benzthiazinan-4-one derivatives as selective cyclooxygenase (COX-2) inhibitors” (Bioorg Med Chem, 2009).
